Experimental data reported in ChEMBL document CHEMBL1135323, “Dihydroquinolines as novel n-NOS inhibitors” (Bioorg Med Chem Lett, 2002).

Legend:
Nitric oxide synthase 1 = Nitric oxide synthase 1 (Homo sapiens, UniProt P29475); assay: Concentration required to inhibit neuronal nitric oxide synthase
Nitric oxide synthase 3 = target: T1, Nitric oxide synthase 3 (Homo sapiens, UniProt P29474); assay: In vitro inhibition of endothelial nitric oxide synthase.
T1 sequence (P29474 whole entry): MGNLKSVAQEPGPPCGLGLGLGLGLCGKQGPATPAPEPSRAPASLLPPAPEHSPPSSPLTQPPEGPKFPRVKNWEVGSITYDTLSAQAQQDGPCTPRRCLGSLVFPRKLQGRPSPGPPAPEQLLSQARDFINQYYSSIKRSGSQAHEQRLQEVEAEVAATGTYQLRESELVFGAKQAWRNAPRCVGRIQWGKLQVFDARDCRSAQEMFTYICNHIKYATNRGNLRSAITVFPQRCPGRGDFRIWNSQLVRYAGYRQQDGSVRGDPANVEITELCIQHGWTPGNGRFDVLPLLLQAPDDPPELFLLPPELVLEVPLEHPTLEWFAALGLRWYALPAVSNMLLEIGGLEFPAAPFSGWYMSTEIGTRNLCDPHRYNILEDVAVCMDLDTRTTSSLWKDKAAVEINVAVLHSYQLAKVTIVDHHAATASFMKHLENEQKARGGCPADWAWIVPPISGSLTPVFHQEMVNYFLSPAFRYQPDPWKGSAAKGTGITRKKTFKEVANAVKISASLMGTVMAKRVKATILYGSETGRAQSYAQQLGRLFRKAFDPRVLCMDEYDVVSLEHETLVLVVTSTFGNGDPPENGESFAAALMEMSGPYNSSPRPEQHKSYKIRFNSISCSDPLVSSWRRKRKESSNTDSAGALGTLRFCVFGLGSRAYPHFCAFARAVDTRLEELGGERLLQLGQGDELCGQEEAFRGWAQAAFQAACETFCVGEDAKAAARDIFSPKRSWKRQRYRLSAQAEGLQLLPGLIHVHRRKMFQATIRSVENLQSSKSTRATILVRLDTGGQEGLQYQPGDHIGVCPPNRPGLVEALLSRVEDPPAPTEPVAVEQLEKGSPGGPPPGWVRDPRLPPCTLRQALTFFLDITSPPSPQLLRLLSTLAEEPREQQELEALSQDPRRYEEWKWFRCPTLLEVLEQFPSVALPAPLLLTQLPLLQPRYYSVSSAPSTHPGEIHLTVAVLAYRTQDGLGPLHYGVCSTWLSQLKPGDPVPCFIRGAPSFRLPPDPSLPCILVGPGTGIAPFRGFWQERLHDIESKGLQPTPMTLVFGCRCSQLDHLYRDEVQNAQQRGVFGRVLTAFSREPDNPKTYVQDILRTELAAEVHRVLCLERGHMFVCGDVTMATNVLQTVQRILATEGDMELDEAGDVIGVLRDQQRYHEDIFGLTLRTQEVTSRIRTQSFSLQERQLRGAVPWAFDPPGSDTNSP

[1] = target: Nitric oxide synthase, inducible (Homo sapiens, UniProt P35228); assay: In vitro inhibition of inducible nitric oxide synthase.
Chain of Nitric oxide synthase, inducible (P35228 whole entry): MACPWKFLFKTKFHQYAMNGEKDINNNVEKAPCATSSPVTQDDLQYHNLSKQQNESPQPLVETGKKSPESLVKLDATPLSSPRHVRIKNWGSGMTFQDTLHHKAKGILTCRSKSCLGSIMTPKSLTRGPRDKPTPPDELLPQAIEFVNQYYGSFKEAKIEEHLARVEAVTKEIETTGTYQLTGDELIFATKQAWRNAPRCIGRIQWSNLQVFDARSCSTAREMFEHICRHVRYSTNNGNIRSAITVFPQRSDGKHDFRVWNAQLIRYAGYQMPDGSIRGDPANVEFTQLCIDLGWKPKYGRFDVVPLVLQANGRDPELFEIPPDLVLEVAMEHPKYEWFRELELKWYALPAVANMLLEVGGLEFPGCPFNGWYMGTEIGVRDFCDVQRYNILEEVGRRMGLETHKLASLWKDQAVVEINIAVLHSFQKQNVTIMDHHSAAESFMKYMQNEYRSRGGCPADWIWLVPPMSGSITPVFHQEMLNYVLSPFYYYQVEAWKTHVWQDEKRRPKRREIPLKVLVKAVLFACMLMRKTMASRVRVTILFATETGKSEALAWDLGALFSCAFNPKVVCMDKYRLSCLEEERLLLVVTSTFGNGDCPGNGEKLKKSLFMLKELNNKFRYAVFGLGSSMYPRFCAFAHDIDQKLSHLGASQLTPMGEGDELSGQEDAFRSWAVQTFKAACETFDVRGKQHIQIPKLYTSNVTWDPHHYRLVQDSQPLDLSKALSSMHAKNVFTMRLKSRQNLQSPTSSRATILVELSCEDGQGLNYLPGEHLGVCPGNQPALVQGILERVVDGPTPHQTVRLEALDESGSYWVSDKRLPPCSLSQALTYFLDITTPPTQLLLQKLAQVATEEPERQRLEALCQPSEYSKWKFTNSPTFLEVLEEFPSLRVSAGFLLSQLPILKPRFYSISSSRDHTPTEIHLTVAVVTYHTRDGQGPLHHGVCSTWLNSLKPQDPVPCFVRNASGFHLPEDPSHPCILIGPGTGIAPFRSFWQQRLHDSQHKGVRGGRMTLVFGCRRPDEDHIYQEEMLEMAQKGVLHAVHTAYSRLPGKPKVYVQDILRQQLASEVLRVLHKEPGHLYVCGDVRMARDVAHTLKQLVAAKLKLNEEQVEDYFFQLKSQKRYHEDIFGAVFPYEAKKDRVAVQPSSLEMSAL

Chain of Nitric oxide synthase 1 (P29475 whole entry): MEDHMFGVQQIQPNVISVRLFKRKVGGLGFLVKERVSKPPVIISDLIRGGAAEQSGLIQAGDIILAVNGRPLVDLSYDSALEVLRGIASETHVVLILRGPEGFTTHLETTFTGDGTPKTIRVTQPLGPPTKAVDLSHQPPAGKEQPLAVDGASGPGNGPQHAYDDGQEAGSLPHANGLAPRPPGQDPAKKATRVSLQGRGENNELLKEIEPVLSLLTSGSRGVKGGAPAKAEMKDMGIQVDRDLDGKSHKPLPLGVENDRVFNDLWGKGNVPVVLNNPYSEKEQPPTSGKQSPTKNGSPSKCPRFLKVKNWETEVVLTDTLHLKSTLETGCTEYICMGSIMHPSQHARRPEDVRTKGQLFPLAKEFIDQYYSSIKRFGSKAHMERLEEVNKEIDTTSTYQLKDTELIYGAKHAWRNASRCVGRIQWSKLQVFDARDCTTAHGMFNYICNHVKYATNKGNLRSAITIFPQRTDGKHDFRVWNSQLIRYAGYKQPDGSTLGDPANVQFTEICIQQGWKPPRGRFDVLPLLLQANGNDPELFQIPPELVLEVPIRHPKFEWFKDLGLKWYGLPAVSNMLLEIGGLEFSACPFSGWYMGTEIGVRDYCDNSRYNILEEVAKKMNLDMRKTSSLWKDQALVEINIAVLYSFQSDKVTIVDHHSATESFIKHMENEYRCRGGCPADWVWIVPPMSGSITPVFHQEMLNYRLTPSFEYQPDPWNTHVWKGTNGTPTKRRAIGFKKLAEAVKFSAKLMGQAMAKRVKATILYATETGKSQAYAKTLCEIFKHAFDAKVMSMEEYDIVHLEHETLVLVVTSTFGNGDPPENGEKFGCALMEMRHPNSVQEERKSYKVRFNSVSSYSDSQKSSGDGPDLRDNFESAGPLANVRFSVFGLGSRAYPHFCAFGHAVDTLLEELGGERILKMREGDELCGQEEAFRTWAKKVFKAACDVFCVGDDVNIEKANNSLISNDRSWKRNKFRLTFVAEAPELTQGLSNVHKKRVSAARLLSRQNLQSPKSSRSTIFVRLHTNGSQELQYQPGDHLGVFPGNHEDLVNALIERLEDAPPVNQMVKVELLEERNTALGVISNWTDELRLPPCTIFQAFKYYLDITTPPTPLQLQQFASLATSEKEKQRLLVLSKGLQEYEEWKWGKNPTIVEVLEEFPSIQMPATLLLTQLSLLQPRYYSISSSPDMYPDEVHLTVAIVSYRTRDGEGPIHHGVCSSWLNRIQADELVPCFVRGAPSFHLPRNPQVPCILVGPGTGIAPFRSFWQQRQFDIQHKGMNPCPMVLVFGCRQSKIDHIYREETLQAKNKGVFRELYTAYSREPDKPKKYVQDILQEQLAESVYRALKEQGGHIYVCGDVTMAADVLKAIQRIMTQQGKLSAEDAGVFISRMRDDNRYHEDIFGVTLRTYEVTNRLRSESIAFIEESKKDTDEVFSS

| IC50 (Nitric oxide synthase 1) | IC50 (Nitric oxide synthase 3) | IC50 [1] | SMILES |
| --- | --- | --- | --- |
| 0.14 µM | 6.2 µM | 5.7 µM | NC1=Nc2ccc(Cl)cc2[C@H]2CCC[C@@H]12 |
| 1.6 µM | 57 µM | 89 µM | NC1=Nc2ccc(C(F)(F)F)cc2[C@H]2CCC[C@@H]12 |
| 0.73 µM | 72 µM | 35 µM | NC1=Nc2c(F)cc(Cl)cc2[C@H]2CCC[C@@H]12 |
| > 100 µM |  |  | CNC1=Nc2ccccc2[C@H]2CCC[C@@H]12 |
| 0.17 µM | 5.8 µM | 2.3 µM | NC1=Nc2c(F)cccc2[C@H]2CCC[C@@H]12 |
| > 200 µM |  |  | c1ccc2c(c1)NC[C@@H]1CCC[C@H]21 |
| 0.13 µM | 2.3 µM | 1.1 µM | NC1=Nc2cc(F)ccc2[C@H]2CCC[C@@H]12 |
| 6.8 µM |  |  | NC1=Nc2ccccc2[C@H]2CCCC[C@@H]12 |
| 0.13 µM | 0.96 µM | 4.1 µM | NC1=Nc2ccccc2[C@H]2COC[C@@H]12 |
| 0.19 µM | 6.2 µM | 1.1 µM | Cc1ccc2c(c1)N=C(N)[C@@H]1CCC[C@H]21 |
| 0.16 µM | 3.3 µM | 2.7 µM | NC1=Nc2ccccc2[C@H]2CCC[C@@H]12 |
| 0.31 µM | 12 µM | 2.6 µM | NC1=Nc2cc([N+](=O)[O-])ccc2[C@H]2CCC[C@@H]12 |
| 0.64 µM | 54 µM | 32 µM | N#Cc1ccc2c(c1)[C@H]1CCC[C@H]1C(N)=N2 |
| 0.5 µM | 21 µM | 12 µM | Cc1ccc2c(c1)[C@H]1CCC[C@H]1C(N)=N2 |
| 0.31 µM | 17 µM | 14 µM | NC1=Nc2ccc(Br)cc2[C@H]2CCC[C@@H]12 |
| > 100 µM |  |  | ONC1=Nc2ccccc2[C@H]2CCC[C@@H]12 |
| 0.64 µM | 24 µM | 13 µM | COc1ccc2c(c1)[C@H]1CCC[C@H]1C(N)=N2 |
| 0.24 µM | 4.1 µM | 1.4 µM | COc1ccc2c(c1)N=C(N)[C@@H]1CCC[C@H]21 |
| 0.11 µM | 2.3 µM | 1.7 µM | NC1=Nc2ccc(F)cc2[C@H]2CCC[C@@H]12 |
| 0.68 µM | 20 µM | 5.1 µM | NC1=Nc2c(ccc(F)c2F)[C@H]2CCC[C@@H]12 |
| 2.1 µM | > 200 µM | 78 µM | NC1=Nc2c(cc(Cl)c(F)c2F)[C@H]2CCC[C@@H]12 |
| 3.3 µM |  |  | NC1=Nc2ccccc2N2CCCC12 (stereo unspecified) |
| 100 µM |  |  | NC1=Nc2ccccc2[C@H]2CCCCC[C@@H]12 |
| 4.1 µM | > 200 µM | 30 µM | NC1=Nc2c(Cl)cc(Cl)cc2[C@H]2CCC[C@@H]12 |
| 0.25 µM | 34 µM | 15 µM | NC1=Nc2ccc([N+](=O)[O-])cc2[C@H]2CCC[C@@H]12 |

| SMILES | IC50 (Nitric oxide synthase 1) | IC50 (Nitric oxide synthase 3) | IC50 [1] |
| --- | --- | --- | --- |
| COC(=O)[C@@H](N)CCCNC(=N)N[N+](=O)[O-] [L-NAME] | 1.6 µM | 1.5 µM | 8 µM |
